Laboratory results reported in US7763650B2, “Pharmaceutical compound and method” (Medipharma S.A., priority 2006, dated 2010).

How the values were obtained:
[1] = test system: Maximal electroshock seizures; experiment: Maximal electroshock seizure (MES) anticonvulsant test; type: in vivo; settings: mice; for Relative Power in relation to 2-propylpentanoic acid (Valproic acid): MES test; for MES test: Effective doses 50: ip, at time of peak effect, micromols per Kg of mouse weight
Description: In Vivo Experiments: The pharmacological tests were performed according to standard procedures provided by the Antiepileptic Drug Development (ADD) Program of the National Institute of Neurological and Communicative Disorders and Stroke (NINCDS). Anticonvulsant tests: Maximal electroshock seizures were elicited in mice by delivering a 60 Hz/50 mA electrical stimulus for 0.2 sec. via ear clip electrodes. A drop of saline solution applied on each ear before placing the electrodes ensures adequate electrical contact. In these conditions, maximal seizures are produced in virtually all normal mice. The maximal seizure typically consists of a short period of tonic flexion followed by a longer period of tonic extension of the hind limbs and a final clonic episode. Blockade of the hind limbs tonic extensor component due to the drug treatment is taken as the end point. […] Determination of the Time of Peak Effect (TPE): […] The percentages of protection or neurotoxicity are recorded and plotted against time and the TPEs are determined by visual inspection of the graphs. Estimation of the ED50s: Groups of 8 animals per dose are injected via ip. […] The percentages of protection at each dose (converted to probit) were plotted against log-doses.

mice = experiment: RotoRod minimal neurotoxicity test; type: in vivo; settings: for Protection: Rotorot test on Effective Doses 50: mouse, in vivo
Description: In Vivo Experiments: The pharmacological tests were performed according to standard procedures provided by the Antiepileptic Drug Development (ADD) Program of the National Institute of Neurological and Communicative Disorders and Stroke (NINCDS). Neurotoxicity tests: The RotoRod test is used exclusively in mice to assess minimal neurotoxicity. A normal mouse can maintain its equilibrium on a rotating rod (6 rpm) for long periods of time. Neurological deficit is indicated by failure to keep walking on this rotating rod in each of three trials of 1 min each. Estimation of the neurotoxic effects: Groups of 8 animals per dose were injected and tested with the RotoRod test. The percentages of animals showing minimal neurotoxicity were recorded and the higher dose producing neurotoxic effects is reported.

| Compound | Relative Power in relation to 2-propylpentanoic acid (Valproic acid) [1] | MES test: Effective doses 50 [1] [µmol/kg] | Protection: Rotorot test on Effective Doses 50 (mice) | Rotorod: animals showing neurotoxicity / animals tested (mice; mice, dose not given) | Protective index (Rotorod neurotoxic dose / MES ED50) (mice; ratio of Rotorod dose to MES ED50, mice) |
| --- | --- | --- | --- | --- | --- |
| CCCC(CCC)C(=O)OC1C(O)C(O)C(OC(=O)C(CCC)CCC)C(OC(=O)C(CCC)CCC)C1OC(=O)C(CCC)CCC (racemic) [Example 4, (±)-3,4,5,6-tetra-O-(2-propylpentanoyl)-myo-inositol] | 9 | 100 | 6 |  |  |
| CCCC(CCC)C(=O)OC1C(O)C(O)C(O)C(O)C1OC(=O)C(CCC)CCC (racemic) [Example 5, (±)-3,4-Di-O-(2-propylpentanoyl)-myo-inositol] | 35 | 35 | 12 |  |  |
| CCCC(CCC)C(=O)O[C@H]1[C@H](OC(=O)C(CCC)CCC)[C@@H](OC(=O)C(CCC)CCC)[C@H](OC(=O)C(CCC)CCC)[C@@H](OC(=O)C(CCC)CCC)[C@H]1OC(=O)C(CCC)CCC [Example 1, (±)1,2,3,4,5,6-hexa-O-(2-propylpentanoyl)-myo-inositol] |  | 100 |  | 0/6 |  |
| CCCC(CCC)C(=O)O [Valproic acid, valproic acid, reference compound] | 1 | 1010 |  |  |  |
| (±)-5,6-Di-O-(2-propylpentanoyl)-1,2:3,4-di-O-cyclohexyl-O-myo-inositol [Example 2] | 35 | 80 |  |  | 12 |
